B1: T. terrestris GH61E polypeptide: GH61E polypeptide having cellulolytic enhancing activity (SEQ ID NO: 8), recombinantly produced in Aspergillus oryzae JaL250 (protein, listed as Thielavia terrestris)
chain: MLANGAIVFLAAALGVSGHYTWPRVNDGADWQQVRKADNWQDNGYVGDVTSPQIRCFQATPSPAPSVLNTTAGSTVTYWANPDVYHPGPVQFYMARVPDGEDINSWNGDGAVWFKVYEDHPTFGAQLTWPSTGKSSFAVPIPPCIKSGYYLLRAEQIGLHVAQSVGGAQFYISCAQLSVTGGGSTEPPNKVAFPGAYSATDPGILINIYYPVPTSYQNPGPAVFSC

Experiments:
[1] = molecular target: T. aurantiacus GH61A polypeptide (Thermoascus aurantiacus, UniProt G3XAP7, N13Y); experiment: Microcrystalline cellulose conversion assay II (Examples 10, 11), T. reesei CEL7A cellobiohydrolase I + A. oryzae CEL3A beta-glucosidase; type: biochemical; conditions: 72 hours, 50° C.; for conversion (hydrolysis) of the microcrystalline cellulose: dioxy compound 0.1% w/w alone, no enzymes
T. aurantiacus GH61A polypeptide, sequence (G3XAP7 whole entry N13Y): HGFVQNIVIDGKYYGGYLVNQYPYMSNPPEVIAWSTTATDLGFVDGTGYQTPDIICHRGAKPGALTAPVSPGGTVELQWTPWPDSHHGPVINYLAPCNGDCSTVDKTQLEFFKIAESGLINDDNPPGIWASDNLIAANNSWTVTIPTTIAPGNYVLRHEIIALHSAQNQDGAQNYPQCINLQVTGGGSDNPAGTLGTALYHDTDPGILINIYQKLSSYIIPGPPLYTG
Method: A 5% microcrystalline cellulose slurry was prepared by addition of 2.5 g of AVICEL® PH101 to a graduated 50 ml screw-cap conical tube followed by approximately 40 ml of deionized water. Each conical tube was then mixed thoroughly by shaking/vortexing, and adjusted to 50 ml total with deionized water and mixed again. For samples containing dioxy compounds, a similar slurry was prepared by the addition of 100 mg of solid dioxy compound and 2.5 g of AVICEL® PH101 to a graduated 50 ml screw-cap conical tube followed by approximately 40 ml of deionized water. Each conical tube was then mixed thoroughly by shaking/vortexing, and adjusted to 50 ml total with deionized water and mixed again.
The dioxy compounds assayed include caffeic acid, dichlorophenolindophenol (DCPIP), ethyl gallate, gallic acid, 3,4-dihydroxybenzoic acid, pyrocatechol, pyrogallol, sinapinic acid (3,5 dimethoxy-4-hydroxy cinnamic acid), and tannic acid.
In all cases, the contents of the tube (5% microcrystalline cellulose slurry with or without 0.2% dioxy compound) were then quickly transferred to a 100 ml beaker and stirred rapidly with a magnetic stirrer. Five hundred μl aliquots of the 5% AVICEL® slurry were pipetted into wells of a 2.0 ml 96-deepwell plate (Axygen, Union City, Calif.) using a 1000 μl micropipette with a wide aperture tip (end of tip cut off about 2 mm from the base). One hundred μl of deionized water and 300 μl of 3.33 mM MnSO4-500 mM sodium acetate pH 5 were then added to each well. Enzyme mixtures were prepared and then added simultaneously to all wells in a volume of 100 μl, for a total of 1 ml in each reaction. […] All experiments reported were performed in triplicate.
Primary analysis of the hydrolysis reactions was performed using an AGILENT® 1100 HPLC with CHEMSTATION® software equipped with an AMINEX™ HPX-87H column. After approximately 4 days, the deep-well plate was removed from the incubator and chilled overnight to 4° C. The plate was then mixed well by inversion and briefly centrifuged at 52×g in a SORVALL® RT7 centrifuge for 10 seconds. Samples were then mixed by pipetting, and 200 μl from each well were transferred to a MULTISCREEN® HV centrifuge filter plate assembly. The centrifuge filter plate assembly was centrifuged at 2000 rpm in a SORVALL® RT7 centrifuge for 20 minutes. […] Sugars were detected using a refractive index detector with quantification by integration compared to purified sugar standards.
All HPLC data processing was performed using MICROSOFT EXCEL™ software. […] In this assay only glucose was measured since beta-glucosidase was at high levels in all samples but the controls. The degree of cellulose conversion was calculated using Equation 1. Triplicate data points were averaged and standard deviation was calculated.
The microcrystalline cellulose hydrolysis assay was performed as described in Example 10.
Data were collected and analyzed, as described in Example 10, after 72 hours of incubation at 50° C.

[2] = tested on: T. terrestris GH61E polypeptide; experiment: Microcrystalline cellulose conversion assay I (Examples 8, 9) with T. terrestris GH61E polypeptide; type: biochemical, Thielavia terrestris; conditions: 96 hours
Method: (§1) A 5% microcrystalline cellulose slurry was prepared by addition of 2.5 g of AVICEL®PH101 (Sigma-Aldrich, St. Louis, Mo., USA) to a graduated 50 ml screw-cap conical tube followed by 15 ml of 1 M sodium acetate pH 5 and 1 ml of 100 mM MnSO4 and approximately 20 ml of deionizer water. Each conical tube was then mixed thoroughly by shaking/vortexing, and adjusted to 50 ml total with deionized water and mixed again. Contents of the tube were then quickly transferred to a 100 ml beaker and stirred rapidly with a magnetic stirrer. Five hundred μl aliquots of the 5% AVICEL® slurry were pipetted into wells of a 2.0 ml 96-deepwell plate (Axygen, Union City, Calif., USA) using a 1000 μl micropipette with a wide aperture tip (end of tip cut off about 2 mm from the base). Three hundred μl of either deionized water or a 1% dioxy compound solution (dissolved in deionized water) was added to each well.
(§2) The dioxy compounds assayed include caffeic acid (Sigma-Aldrich, St. Louis, Mo., USA), dichlorophenolindophenol (DCPIP; Sigma-Aldrich, St. Louis, Mo., USA), ethyl gallate (Sigma-Aldrich, St. Louis, Mo., USA), gallic acid (Sigma-Aldrich, St. Louis, Mo., USA), 3,4-dihydroxybenzoic acid (Sigma-Aldrich, St. Louis, Mo., USA), pyrocatechol (Sigma-Aldrich, St. Louis, Mo., USA), pyrogallol (Sigma-Aldrich, St. Louis, Mo., USA), sinapinic acid (3,5 dimethoxy-4-hydroxy cinnamic acid; Apin Chemicals LTD, Abingdon, UK), and tannic acid (Sigma-Aldrich, St. Louis, Mo., USA).
(§3) Enzyme mixtures were prepared and then added simultaneously to all wells in a volume of 200 μl, for a total of 1 ml in each reaction. […] All experiments reported were performed in triplicate.
(§4) After approximately 4 days, the deep-well plate was removed from the incubator and chilled overnight to 4° C. The plate was then mixed well by inversion and briefly centrifuged at 52×g in a SORVALL® RT7 centrifuge (Thermo Fisher Scientific, Waltham, Mass., USA) for 10 seconds. Samples were then mixed by pipetting, and 200 μl from each well were transferred to a MULTISCREEN® HV centrifuge filter plate assembly (Millipore, Bedford, Mass., USA). The centrifuge filter plate assembly was centrifuged at 2000 rpm in a SORVALL® RT7 centrifuge for 20 minutes. […] Sugars were detected using a refractive index detector (Agilent Technologies, Inc., Santa Clara, Calif., USA) with quantification by integration compared to purified sugar standards.
(§5) In this assay only glucose was measured since beta-glucosidase was at high levels in all samples but the controls.
(§6) A limit digest was performed to determine the total concentration accessible glucose equivalents using 100 mg of T. reesei cellulase (CELLIC™ CTec, Novozymes A/S, Bagsvaerd, Denmark) per gram cellulose, Triplicate data points were averaged and standard deviation was calculated.

[3] = tested on: T. aurantiacus CEL5A endoglucanase II and P. brasilianum CEL3A beta-glucosidase; experiment: Microcrystalline cellulose conversion assay I (Examples 8, 9) without GH61 polypeptide; type: biochemical, Thermoascus aurantiacus; Penicillium brasilianum; conditions: dioxy compound 0.3% w/w + endoglucanase II + beta-glucosidase (5 mg/g each), no GH61; 96 hours, at either 50° C. or 60° C.
Method: as §1, §2, §3, §4, §5, §6

[4] = dioxy compound 0.3% w/w + T. terrestris GH61E polypeptide (10 mg/g) + endoglucanase II + beta-glucosidase (5 mg/g each), 50° C.
[5] = dioxy compound 0.3% w/w + T. terrestris GH61E polypeptide (10 mg/g) + endoglucanase II + beta-glucosidase (5 mg/g each), 60° C.

Row | Molecule | conversion (hydrolysis) of the microcrystalline cellulose [1] | conversion of microcrystalline cellulose [2, 4] | conversion of microcrystalline cellulose [2, 5] | change in conversion of microcrystalline cellulose compared to the enzymes in the absence of the dioxy compound [3] | conversion of the microcrystalline cellulose ([1]; dioxy compound 0.1% w/w + cellobiohydrolase I + beta-glucosidase (5 mg/g each), no GH61) | conversion of microcrystalline cellulose ([2]; T. terrestris GH61E polypeptide (10 mg per g cellulose) + endoglucanase II + beta-glucosidase (5 mg/g each), no dioxy compound, 50° C.) | conversion of microcrystalline cellulose ([2]; T. terrestris GH61E polypeptide (10 mg per g cellulose) + endoglucanase II + beta-glucosidase (5 mg/g each), no dioxy compound, 60° C.)
1 | O=C1C=CC(=Nc2cc(Cl)c(O)c(Cl)c2)C=C1 [DCPIP, dichlorophenolindophenol] | no significant hydrolysis |  |  |  |  |  | 
2 | CCOC(=O)c1cc(O)c(O)c(O)c1 [ethyl gallate] | no significant hydrolysis | 6.0±0.3% | 6.2±0.1% | no significant change |  |  | 
3 | O=C(OC[C@H]1O[C@@H](OC(=O)c2cc(O)c(O)c(OC(=O)c3cc(O)c(O)c(O)c3)c2)[C@H](OC(=O)c2cc(O)c(O)c(OC(=O)c3cc(O)c(O)c(O)c3)c2)[C@@H](OC(=O)c2cc(O)c(O)c(OC(=O)c3cc(O)c(O)c(O)c3)c2)[C@@H]1OC(=O)c1cc(O)c(O)c(OC(=O)c2cc(O)c(O)c(O)c2)c1)c1cc(O)c(O)c(OC(=O)c2cc(O)c(O)c(O)c2)c1 [tannic acid] |  | 5.7±0.1% | 6.0±0.2% | no significant change |  |  | 
4 | O=C(O)/C=C/c1ccc(O)c(O)c1 [caffeic acid] | no significant hydrolysis | 4.4±0.1% | 7.0±0.1% | no significant change |  |  | 
5 | Oc1ccccc1O [pyrocatechol] | no significant hydrolysis | 7.4±0.2% | 7.9±0.1% | no significant change | no significant change |  | 
6 | Oc1cccc(O)c1O [pyrogallol] | no significant hydrolysis | 7.1±0.5% | 9.5±0.1% | no significant change |  |  | 
7 | COc1cc(C=CC(=O)O)cc(OC)c1O [sinapinic acid, 3,5 dimethoxy-4-hydroxy cinnamic acid] |  | 6.3±0.1% | 9.2±0.1% | no significant change |  |  | 
8 | O=C(O)c1ccc(O)c(O)c1 [3,4-dihydroxybenzoic acid] | no significant hydrolysis |  |  |  |  |  | 
9 | B1 |  |  |  |  |  | 2.8±0.1% | 3.1±0.1%
